# Data published in ChEMBL document CHEMBL3507680, “University of Dundee, Gates Library screen for HepG2 cell viability”.
# Test: Human HepG2 cell viability assay in 384 well format
# Format: toxicity, cell-based
# Design: dose 125 nL, time 70.5 hour; cytotoxicity at 70.5 h: concentration not given beside the values
# Conditions: HepG2 cells, read-out: Inhibition
row,SMILES,cytotoxicity at 70.5 h [%]
1,CCc1n[nH]c(C2CN(CCCOc3cccc(C)c3)CCO2)n1 (centres undefined),-3.37
2,CCN(CC(=O)Nc1c(C)nn(C)c1C)CC(O)c1ccc(C)cc1 (centres undefined),-5.69
3,O=C(c1ccoc1)N1CCCCC1c1nc[nH]n1 (centres undefined),-1.78
4,CS(=O)(=O)CCCN1CCOC2(CCc3ccccc32)C1 (centres undefined),0.769
5,c1ccc(CCN2CCOC3(CCc4ccccc43)C2)nc1 (centres undefined),-15.8
6,O=C(c1ccccc1)C1CCN(Cc2cc3c(cc2O)CCC3)CC1,33.9
7,CC(=O)c1c[nH]c(C(=O)N2CCN(C(C(N)=O)c3ccccc3)CC2)c1 (centres undefined),47.9
8,Cc1nc2ccccc2n(Cc2nnnn2C2CC2)c1=O,-5.13
9,CCN(C(=O)c1ccccc1I)C1CC(=O)NC1=O (centres undefined),4.4
10,COc1cccc(CN(C(=O)Nc2nncs2)C2CCC(O)CC2)c1 (centres undefined),0.476
11,CCCC(=O)NCC(=O)NC1CC(C)(C)Cc2oc(C)cc21 (centres undefined),-5.41
12,CN(Cc1ccncc1)C(=O)c1ccc(F)c(NS(C)(=O)=O)c1,-4.24
13,O=C(Nc1ccnn1C1CCCC1)c1ccc(NC2CC2)nc1,3.1
14,Cc1cc(NC(=O)CN2CCCC(Cn3cncn3)C2)on1 (centres undefined),-3
15,CC(C)(O)CNC(=O)c1sccc1Br,0.0507
16,Cc1cc(C(=O)N2CCOC(c3nc(C)n[nH]3)C2)[nH]n1 (centres undefined),3.96
17,CC(C)NC(=O)NCCCOC1CCOCC1,-4.28
18,CCC(NC(=O)Nc1cc(F)c(OC)c(F)c1)c1noc(C)n1 (centres undefined),0.154
19,O=C(Nc1cccn(CC(F)(F)F)c1=O)c1ccncc1F,-11.6
20,O=C(NC1CC1)NC(c1cc(F)ccc1F)C1CC1 (centres undefined),-5.9
21,O=C(c1[nH]nc(C2CC2)c1Cl)N1CCCC1,3.72
22,O=C(NC1CCN(C2CC2)CC1)c1[nH]nc(C2CC2)c1Cl,-4.43
23,Cc1nn(C)c(C)c1OCC(=O)N1CCC(O)(C(F)(F)F)CC1,-6.23
24,CC(C)(C)c1cc(NC(=O)CN2CCCC(Cn3cncn3)C2)on1 (centres undefined),25.7

row,SMILES,cytotoxicity at 70.5 h [%]
1,Cc1cnn(CCCNC(=O)C2CCCCN2Cc2ccncc2)c1 (centres undefined),-4.19
2,Cc1nccn1CCCNC(=O)C1CCCCN1Cc1ccncc1 (centres undefined),-2.44
3,CC(C)OCCN1CCN(C(=O)c2cc(-n3cccn3)ccn2)CC1,-4.55
4,Cc1cnn(CCCNC(=O)C2CCCCN2Cc2cccnc2)c1 (centres undefined),0.0952
5,CC(C)(C)c1cc(NC(=O)CN2CCCCC2Cn2cncn2)on1 (centres undefined),-5.88
6,CN(C)c1cccc(C(=O)N2CCn3c(nnc3-c3ccccc3)C2)c1,-7.74
7,CN(C)C(CNC(=O)NCc1ccco1)c1cccs1 (centres undefined),-6.4
8,Cc1nc(C2(NCc3cc(C#N)ccc3F)CCCCC2)no1,-17.2
9,O=C(NCCn1ccnc1)c1cncc(Br)c1,19.8
10,NC(=O)CCS(=O)(=O)Cc1ccc(OCC(F)(F)F)cc1,-9.93
11,CCN(CC)S(=O)(=O)NCCc1cc(C)ccc1OC,-15.7
12,CCC1CN(c2cnn(C)c(=O)c2Br)CCO1 (centres undefined),-1.58
13,CCSc1ccc(NC(=O)NC(C)c2c(C)noc2C)cn1 (centres undefined),-6.61
14,CN(C)c1cccc(C2CCCN2S(N)(=O)=O)c1 (centres undefined),-1.57
15,O=C(NC1CCCN(c2ccc(OC(F)F)cc2)C1)c1c[nH]nn1 (centres undefined),18.5
16,O=C(NC1CCCN(c2ccc(OC(F)F)cc2)C1)c1cnc[nH]1 (centres undefined),-11.2
17,NS(=O)(=O)N1CCC(CSc2ccccc2)C1 (centres undefined),-9.2
18,Cc1nc(C2(NC(=O)NCc3cc(C#N)ccc3F)CCCC2)no1,-10.1
19,OCc1ccc(CNc2ccccc2CN2CCC(O)CC2)o1,-4.84
20,O=S(=O)(CCO)Cc1ccc(OCC(F)(F)F)cc1,-9.29
21,COc1ccccc1CNC1(CCO)CCOCC1,20.6
22,Cc1c(Br)cccc1CNC1(CCO)CCOCC1,-1.58
23,CC(C)OCCS(=O)(=O)N1CCCC1c1cccc(N(C)C)c1 (centres undefined),-5.82
24,CCc1cnc(CN2CCC(O)(c3cc(OC)cc(OC)c3)CC2)o1,-12.2

row,SMILES,cytotoxicity at 70.5 h [%]
1,Cn1c(C2CC2)nc2c1CCN(CCc1ccccn1)C2,-5.41
2,CCSc1ccc(NC(=O)NC(C)c2ccncc2)cn1 (centres undefined),-5.74
3,CN(C)C(CNC(=O)N(Cc1ccco1)C1CC1)c1cccs1 (centres undefined),-11.4
4,Cc1nnc(C(C)N(C)Cc2c(C)nn(-c3ccccc3C)c2C)o1 (centres undefined),2.96
5,COCCOCCNC(=O)N1CCc2c(F)ccc(F)c2C1,2.28
6,Cc1nccn1-c1ncccc1NC(=O)CCOCC(C)C,-7.64
7,CN(CC(N)=O)C(=O)C1Cc2cc(Cl)ccc2O1 (centres undefined),-5.33
8,Cc1cnn(CCCNCc2csc(COc3ccccc3)n2)c1,-3.68
9,Cc1ccc(C2CSCCN2C(=O)c2cc(C(N)=O)cs2)o1 (centres undefined),-8.27
10,O=C(NC1CC1)c1ccccc1NCc1cn2cccnc2n1,-5.34
11,CN1CCN(S(=O)(=O)c2ccc(Cl)c(Cl)c2)c2cnccc21,-0.75
12,CN1CCN(S(=O)(=O)c2cccnc2)c2cnccc21,-3.64
13,CN1CCN(S(=O)(=O)c2cccc(F)c2)c2cnccc21,-2.79
14,O=S(=O)(NC1CCCCC12OCCO2)c1cc(F)cc(F)c1 (centres undefined),-3.19
15,O=S(=O)(NC1CCCCC12OCCO2)c1cc(Cl)cc(Cl)c1 (centres undefined),-3.17
16,Cc1[nH]ncc1C(=O)NCC(CO)Cc1ccc(Cl)cc1 (centres undefined),-5.24
17,CC(CO)(NC(=O)NCc1ccc(Br)s1)C1CC1 (centres undefined),-8.92
18,Cc1cc2c(cc1NC(=O)NCC(C)C)OCO2,-8.91
19,CC(C)c1ccc(C(C)N2CCCN(C(N)=O)CC2)cc1 (centres undefined),-5.71
20,Cc1cc2c(cc1NC(=O)NC(C)(C)C)OCO2,-7.87
21,c1ccc(Cc2nc(CNCCn3cccn3)cs2)cc1,1.06
22,CC(c1ccc(Br)cc1)N1CCCN(C(N)=O)CC1 (centres undefined),-5.26
23,O=C(NCC(CO)Cc1ccc(Cl)cc1)c1ccncc1Cl (centres undefined),-1.15
24,CCN(CC)S(=O)(=O)N(Cc1cccc(C)c1)Cc1ccccn1,19.3

row,SMILES,cytotoxicity at 70.5 h [%]
1,Cc1cc(NCc2ccc(CS(N)(=O)=O)cc2)nc(C)n1,-12.6
2,O=C1CN(CCS(=O)(=O)c2ccc(Cl)cc2)CCN1,-11.9
3,CC(C)CNc1nnc(SC(C(=O)NCc2cccnc2)C(C)C)s1 (centres undefined),-15.2
4,O=C1CCN(CCS(=O)(=O)c2ccc(Cl)cc2)CCN1,-11.7
5,COc1ccccc1-c1csc(NC(=O)N2CCN(C)CC2C)n1 (centres undefined),-14.7
6,CC(C)C(=O)NS(=O)(=O)c1ccc(F)c(C(F)(F)F)c1,-10.6
7,CC(C)CCN1CCN(C(=O)c2c[nH]c(=O)[nH]2)CC1,-8.02
8,COCCN1CCC(Nc2c(F)cc(C#N)cc2F)CC1,-14.5
9,CCC1CN(C)c2ccccc2CN1C(=O)Nc1ccccc1OC (centres undefined),16.8
10,CC(C)OCCN1CCC(Nc2ccc(C#N)cc2F)CC1,-8.23
11,CCC1CN(C)c2ccccc2CN1C(=O)Nc1cccc(F)c1 (centres undefined),-9.77
12,COc1ccccc1NC(=O)NC1(c2noc(CN(C)C)n2)CCCC1,22.4
13,COc1cc(CN(C)Cc2cccnc2)c(SC)cc1OC,-8.67
14,CC(O)CN1CCN(CCOCC(F)(F)F)CC1 (centres undefined),-7.92
15,CC(C)(C)C(O)CN1CCN(CCOCC(F)(F)F)CC1 (centres undefined),-9.97
16,CC(C)c1nc(CNC2CCN(C(=O)OC(C)(C)C)CC2)cs1,-8.72
17,COc1ccc(CNc2cccnc2-n2cccn2)c(OC)c1OC,-11.5
18,Cc1nc(C2CN(Cc3ccccc3C)CCO2)no1 (centres undefined),-11
19,CCCNC(=O)CN1CCC(NCc2csc(C(C)C)n2)CC1,-11.5
20,CCS(=O)(=O)CCN(C)Cc1cc(C)ccc1OC,-13.6
21,CS(=O)(=O)Cc1ccc(C(=O)NCc2ccc(Cl)cc2Cl)cc1,-6.11
22,COCCNC(=O)c1ccc2c(=O)n3c(nc2c1)CCCCCC3,7.92
23,O=S(=O)(NCc1ccc(S(=O)(=O)N2CCCC2)s1)c1cc(Cl)ccc1Cl,-14.9
24,O=S(=O)(NCc1ccc(S(=O)(=O)N2CCCC2)s1)c1ccc(F)cc1Cl,-1.37

row,SMILES,cytotoxicity at 70.5 h [%]
1,CC(=O)N1CCC(NC(=O)NCc2ncc(-c3ccccc3)o2)CC1,-3.53
2,Cc1cccc2c1NC1(CCCC1)NC2=O,-13.5
3,CCn1c(CN(C)Cc2cnc(C)s2)nc2c(F)cccc21,-24.5
4,c1ccc(C(NCc2nnc(-c3ccco3)o2)C2CCC2)cc1 (centres undefined),-14.7
5,CCNC(=O)CCC(=O)NC1(c2cccc(C(F)(F)F)c2)CCC1,16.4
6,COCC(O)CNc1ccc(C#N)cc1C(F)(F)F (centres undefined),-9.81
7,Cc1nc(C)c(CCNc2ccc(S(N)(=O)=O)cc2C#N)s1,-15
8,CCC(C(=O)Nc1ccc2cn(CC)nc2c1)N1CCCC1=O (centres undefined),-24.8
9,Cc1ccnc(NC(=O)C2CCN(CCCn3ccnc3)CC2)c1,-15.3
10,COc1cccc(CN(C)Cc2nc(C(C)C)no2)c1,14.7
11,CO[C@H]1CN(C(=O)OC(C)(C)C)CC1NCc1cccn1C (some centres undefined),-8.94
12,CO[C@H]1CN(C(=O)OC(C)(C)C)CC1NCc1cc[nH]c1 (some centres undefined),-20.4
13,CCN1CCc2c(cccc2NC(=O)CN(C)C2CCSC2)C1 (centres undefined),-3.51
14,Cn1cc(CCNCC2CNc3ccnn3C2)cn1 (centres undefined),1.67
15,COCCS(=O)(=O)NC(C)c1ccc(-n2nc(C)cc2C)cc1 (centres undefined),3.86
16,N#Cc1c(F)cccc1N1CCN(S(=O)(=O)c2cccs2)CC1,8.47
17,COc1ccc(C2CCCN2C(=O)NCCNc2ncccn2)cc1 (centres undefined),-4.74
18,CCCOc1cc(C)ccc1NC(=O)NCCC(=O)N(C)C,-2.29
19,O=C(NCC1CC1)C1CSCN1S(=O)(=O)c1cccc(F)c1 (centres undefined),-0.541
20,CC(O)CN1CCC(CNCc2ccc(S(C)(=O)=O)cc2)CC1 (centres undefined),-3.17
21,CC(C1CC1)N(C)C(=O)c1cnc(-c2ccc3c(c2)OCO3)s1 (centres undefined),13.8
22,Cc1cccc(N2CCC(NC(=O)CCCc3cccs3)CC2)n1,-2.62
23,CSCC(CCO)NC(=O)Nc1cc(C)ccc1C (centres undefined),0.113
